Source: ChEMBL document CHEMBL1201862, “PubChem BioAssay data set” (2004)
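Cultured in 96-well plates, cells were exposed to test compound for 48 hours across five concentrations. At the GI50, growth is halved.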 The source made the active and inactive calls. Rule as the data show it: active = GI50 up to about 1.1 µM and inactive = higher.

How the values were obtained:
Assay in all cases: growth of human tumour cells (NCI), 48 h
RPMI-8226 = test system: RPMI-8226
Malme-3M = test system: Malme-3M
RXF 393 = test system: RXF 393
BT-549 = test system: BT-549
KM12 = test system: KM12
U-251 = test system: U-251
HL-60 = test system: HL-60
M14 = test system: M14
NCI-H522 = test system: NCI-H522
SF-295 = test system: SF-295
OVCAR-8 = test system: OVCAR-8
SF-539 = test system: SF-539
SK-OV-3 = test system: SK-OV-3
SNB-75 = test system: SNB-75
NCI-H460 = test system: NCI-H460
SNB-19 = test system: SNB-19
NCI-H226 = test system: NCI-H226
TK-10 = test system: TK-10
NCI-H23 = test system: NCI-H23
HCT-15 = test system: HCT-15
SF-268 = test system: SF-268
SR = test system: SR
IGROV-1 = test system: IGROV-1
EKVX = test system: EKVX
LOX IMVI = test system: LOX IMVI
A498 = test system: A498
SK-MEL-28 = test system: SK-MEL-28
A549 = test system: A549
OVCAR-3 = test system: OVCAR-3
MDA-N = test system: MDA-N
SK-MEL-2 = test system: SK-MEL-2
SN12C = test system: SN12C
ACHN = test system: ACHN
HCC 2998 = test system: HCC 2998
PC-3 = test system: PC-3
MCF7 = test system: MCF7
SW-620 = test system: SW-620
HOP-62 = test system: HOP-62
NCI/ADR-RES = test system: NCI/ADR-RES
DU-145 = test system: DU-145
MDA-MB-435 = test system: MDA-MB-435
OVCAR-5 = test system: OVCAR-5
COLO 205 = test system: COLO 205
HT-29 = test system: HT-29
SK-MEL-5 = test system: SK-MEL-5
786-0 = test system: 786-0
UO-31 = test system: UO-31
K562 = test system: K562
OVCAR-4 = test system: OVCAR-4
T47D = test system: T47D
CCRF-CEM = test system: CCRF-CEM
MOLT-4 = test system: MOLT-4
Hs-578T = test system: Hs-578T
UACC-62 = test system: UACC-62
MDA-MB-231 = test system: MDA-MB-231
HCT-116 = test system: HCT-116
UACC-257 = test system: UACC-257
HOP-92 = test system: HOP-92
CAKI-1 = test system: CAKI-1

Structure (SMILES): CC(=O)N(C(C)=O)n1c(Cc2ccc(Cl)cc2)nn(C(C)=O)c1=O
- GI50 (RPMI-8226): > 100 µM (inactive)
- GI50 (Malme-3M): > 100 µM (inactive)
- GI50 (RXF 393): > 100 µM (inactive)
- GI50 (BT-549): > 100 µM (inactive)
- GI50 (KM12): > 100 µM (inactive)
- GI50 (U-251): > 100 µM (inactive)
- GI50 (HL-60): > 100 µM (inactive)
- GI50 (M14): > 100 µM (inactive)
- GI50 (NCI-H522): > 100 µM (inactive)
- GI50 (SF-295): > 100 µM (inactive)
- GI50 (OVCAR-8): > 100 µM (inactive)
- GI50 (SF-539): > 100 µM (inactive)
- GI50 (SK-OV-3): > 100 µM (inactive)
- GI50 (SNB-75): > 100 µM (inactive)
- GI50 (NCI-H460): > 100 µM (inactive)
- GI50 (SNB-19): > 100 µM (inactive)
- GI50 (NCI-H226): > 100 µM (inactive)
- GI50 (TK-10): > 100 µM (inactive)
- GI50 (NCI-H23): > 100 µM (inactive)
- GI50 (HCT-15): > 100 µM
- GI50 (SF-268): > 100 µM (inactive)
- GI50 (SR): > 100 µM (inactive)
- GI50 (IGROV-1): > 100 µM (inactive)
- GI50 (EKVX): > 100 µM (inactive)
- GI50 (LOX IMVI): > 100 µM (inactive)
- GI50 (A498): > 100 µM (inactive)
- GI50 (SK-MEL-28): > 100 µM (inactive)
- GI50 (A549): > 100 µM (inactive)
- GI50 (OVCAR-3): > 100 µM (inactive)
- GI50 (MDA-N): > 100 µM (inactive)
- GI50 (SK-MEL-2): > 100 µM (inactive)
- GI50 (SN12C): > 100 µM (inactive)
- GI50 (ACHN): > 100 µM (inactive)
- GI50 (HCC 2998): > 100 µM (inactive)
- GI50 (PC-3): > 100 µM (inactive)
- GI50 (MCF7): > 100 µM (inactive)
- GI50 (SW-620): > 100 µM (inactive)
- GI50 (HOP-62): > 100 µM (inactive)
- GI50 (NCI/ADR-RES): > 100 µM (inactive)
- GI50 (DU-145): > 100 µM (inactive)
- GI50 (MDA-MB-435): > 100 µM (inactive)
- GI50 (OVCAR-5): > 100 µM (inactive)
- GI50 (COLO 205): > 100 µM (inactive)
- GI50 (HT-29): > 100 µM (inactive)
- GI50 (SK-MEL-5): > 100 µM (inactive)
- GI50 (786-0): > 100 µM (inactive)
- GI50 (UO-31): > 100 µM (inactive)
- GI50 (K562): > 100 µM (inactive)
- GI50 (OVCAR-4): > 100 µM (inactive)
- GI50 (T47D): > 100 µM (inactive)
- GI50 (CCRF-CEM): > 100 µM (inactive)
- GI50 (MOLT-4): > 100 µM (inactive)
- GI50 (Hs-578T): > 100 µM (inactive)
- GI50 (UACC-62): > 100 µM (inactive)
- GI50 (MDA-MB-231): > 100 µM (inactive)

Structure (SMILES): C1=N\CCNCCNCC/N=C\c2ccc(cc2)OCc2cccc(n2)COc2ccc/1cc2
- GI50 (RPMI-8226): 53.6 µM (inactive)
- GI50 (Malme-3M): > 100 µM (inactive)
- GI50 (RXF 393): > 100 µM (inactive)
- GI50 (BT-549): > 100 µM (inactive)
- GI50 (KM12): 33.2 µM (inactive)
- GI50 (U-251): > 100 µM (inactive)
- GI50 (HL-60): 67.9 µM (inactive)
- GI50 (M14): > 100 µM (inactive)
- GI50 (SF-295): > 100 µM (inactive)
- GI50 (OVCAR-8): > 100 µM (inactive)
- GI50 (SF-539): > 100 µM (inactive)
- GI50 (HCT-116): > 100 µM (inactive)
- GI50 (SK-OV-3): > 100 µM (inactive)
- GI50 (SNB-75): 47.1 µM (inactive)
- GI50 (NCI-H460): 73.6 µM (inactive)
- GI50 (SNB-19): > 100 µM (inactive)
- GI50 (NCI-H226): > 100 µM (inactive)
- GI50 (NCI-H23): 86.3 µM (inactive)
- GI50 (HCT-15): > 100 µM
- GI50 (SF-268): 83.6 µM (inactive)
- GI50 (SR): 50.5 µM (inactive)
- GI50 (IGROV-1): > 100 µM (inactive)
- GI50 (UACC-257): 88.5 µM (inactive)
- GI50 (EKVX): > 100 µM (inactive)
- GI50 (A498): > 100 µM (inactive)
- GI50 (SK-MEL-28): > 100 µM (inactive)
- GI50 (A549): > 100 µM (inactive)
- GI50 (OVCAR-3): > 100 µM (inactive)
- GI50 (MDA-N): > 100 µM (inactive)
- GI50 (SK-MEL-2): > 100 µM (inactive)
- GI50 (SN12C): > 100 µM (inactive)
- GI50 (HOP-92): > 100 µM (inactive)
- GI50 (ACHN): > 100 µM (inactive)
- GI50 (CAKI-1): > 100 µM (inactive)
- GI50 (PC-3): 79.4 µM (inactive)
- GI50 (MCF7): 29.8 µM (inactive)
- GI50 (SW-620): 95.5 µM (inactive)
- GI50 (HOP-62): > 100 µM (inactive)
- GI50 (NCI/ADR-RES): 95.1 µM (inactive)
- GI50 (DU-145): > 100 µM (inactive)
- GI50 (MDA-MB-435): 75.2 µM (inactive)
- GI50 (OVCAR-5): > 100 µM (inactive)
- GI50 (COLO 205): > 100 µM (inactive)
- GI50 (HT-29): > 100 µM (inactive)
- GI50 (SK-MEL-5): 51.4 µM (inactive)
- GI50 (786-0): > 100 µM (inactive)
- GI50 (UO-31): > 100 µM (inactive)
- GI50 (K562): 34.1 µM (inactive)
- GI50 (OVCAR-4): 68.5 µM (inactive)
- GI50 (T47D): 53.3 µM (inactive)
- GI50 (CCRF-CEM): 27.6 µM (inactive)
- GI50 (MOLT-4): 29 µM (inactive)
- GI50 (Hs-578T): 99.3 µM (inactive)
- GI50 (UACC-62): > 100 µM (inactive)
- GI50 (MDA-MB-231): > 100 µM (inactive)

Structure (SMILES): Cc1c(CCN2CCOCC2)c(N2CCOCC2)n2c(nc3ccccc32)c1C#N
- GI50 (RPMI-8226): > 10 µM (inactive)
- GI50 (Malme-3M): > 10 µM (inactive)
- GI50 (RXF 393): > 10 µM (inactive)
- GI50 (BT-549): > 10 µM (inactive)
- GI50 (KM12): > 10 µM (inactive)
- GI50 (U-251): > 10 µM (inactive)
- GI50 (HL-60): > 10 µM (inactive)
- GI50 (M14): > 10 µM (inactive)
- GI50 (SF-295): > 10 µM (inactive)
- GI50 (OVCAR-8): > 10 µM (inactive)
- GI50 (SF-539): > 10 µM (inactive)
- GI50 (HCT-116): > 10 µM (inactive)
- GI50 (SK-OV-3): > 10 µM (inactive)
- GI50 (SNB-75): > 10 µM (inactive)
- GI50 (NCI-H460): > 10 µM (inactive)
- GI50 (SNB-19): > 10 µM (inactive)
- GI50 (NCI-H226): > 10 µM (inactive)
- GI50 (TK-10): > 10 µM (inactive)
- GI50 (NCI-H23): > 10 µM (inactive)
- GI50 (HCT-15): > 10 µM
- GI50 (SF-268): > 10 µM (inactive)
- GI50 (SR): > 10 µM (inactive)
- GI50 (IGROV-1): > 10 µM (inactive)
- GI50 (UACC-257): > 10 µM (inactive)
- GI50 (EKVX): > 10 µM (inactive)
- GI50 (LOX IMVI): > 10 µM (inactive)
- GI50 (A498): 6.31 µM (inactive)
- GI50 (SK-MEL-28): > 10 µM (inactive)
- GI50 (A549): > 10 µM (inactive)
- GI50 (OVCAR-3): > 10 µM (inactive)
- GI50 (MDA-N): > 10 µM (inactive)
- GI50 (SN12C): > 10 µM (inactive)
- GI50 (HOP-92): > 10 µM (inactive)
- GI50 (ACHN): > 10 µM (inactive)
- GI50 (CAKI-1): > 10 µM (inactive)
- GI50 (PC-3): > 10 µM (inactive)
- GI50 (MCF7): > 10 µM (inactive)
- GI50 (SW-620): > 10 µM (inactive)
- GI50 (HOP-62): > 10 µM (inactive)
- GI50 (NCI/ADR-RES): > 10 µM (inactive)
- GI50 (DU-145): > 10 µM (inactive)
- GI50 (MDA-MB-435): > 10 µM (inactive)
- GI50 (OVCAR-5): > 10 µM (inactive)
- GI50 (COLO 205): > 10 µM (inactive)
- GI50 (HT-29): > 10 µM (inactive)
- GI50 (SK-MEL-5): > 10 µM (inactive)
- GI50 (786-0): 8.95 µM (inactive)
- GI50 (UO-31): > 10 µM (inactive)
- GI50 (K562): > 10 µM (inactive)
- GI50 (OVCAR-4): > 10 µM (inactive)
- GI50 (T47D): > 10 µM (inactive)
- GI50 (CCRF-CEM): > 10 µM (inactive)
- GI50 (MOLT-4): > 10 µM (inactive)
- GI50 (Hs-578T): 3.77 µM (inactive)
- GI50 (UACC-62): > 10 µM (inactive)
- GI50 (MDA-MB-231): > 10 µM (inactive)
